Measurements: patent US10166216B2 (Rigel Pharmaceuticals, Inc., priority 2006, dated 2019)

Target: Axl (Homo sapiens (Human), UniProt P30530)
Assay: Phospho-Akt in-cell Western assay (Axl-antibody cross-linking stimulation)
Type: cell-based
Conditions: inhibition of Axl activity
Method in brief: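 HeLa cells on poly-L-lysine, starved 24 hrs with Axl/Fc, pre-treated with compound 1 hr at 37° C., then stimulated 5 min with Axl primary/secondary antibody cluster. Fixed cells probed for phospho-Akt by chemiluminescent in-cell Western; signal normalized to crystal violet cell number.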

[1] = phospho-Akt in-cell Western assay
[2] = Hela cells, phospho-Akt readout, Table 1, formula (Ia1)
[3] = Hela cells, phospho-Akt readout, Table 5, formula (Ia3)

Sequence of Axl (P30530 26-894): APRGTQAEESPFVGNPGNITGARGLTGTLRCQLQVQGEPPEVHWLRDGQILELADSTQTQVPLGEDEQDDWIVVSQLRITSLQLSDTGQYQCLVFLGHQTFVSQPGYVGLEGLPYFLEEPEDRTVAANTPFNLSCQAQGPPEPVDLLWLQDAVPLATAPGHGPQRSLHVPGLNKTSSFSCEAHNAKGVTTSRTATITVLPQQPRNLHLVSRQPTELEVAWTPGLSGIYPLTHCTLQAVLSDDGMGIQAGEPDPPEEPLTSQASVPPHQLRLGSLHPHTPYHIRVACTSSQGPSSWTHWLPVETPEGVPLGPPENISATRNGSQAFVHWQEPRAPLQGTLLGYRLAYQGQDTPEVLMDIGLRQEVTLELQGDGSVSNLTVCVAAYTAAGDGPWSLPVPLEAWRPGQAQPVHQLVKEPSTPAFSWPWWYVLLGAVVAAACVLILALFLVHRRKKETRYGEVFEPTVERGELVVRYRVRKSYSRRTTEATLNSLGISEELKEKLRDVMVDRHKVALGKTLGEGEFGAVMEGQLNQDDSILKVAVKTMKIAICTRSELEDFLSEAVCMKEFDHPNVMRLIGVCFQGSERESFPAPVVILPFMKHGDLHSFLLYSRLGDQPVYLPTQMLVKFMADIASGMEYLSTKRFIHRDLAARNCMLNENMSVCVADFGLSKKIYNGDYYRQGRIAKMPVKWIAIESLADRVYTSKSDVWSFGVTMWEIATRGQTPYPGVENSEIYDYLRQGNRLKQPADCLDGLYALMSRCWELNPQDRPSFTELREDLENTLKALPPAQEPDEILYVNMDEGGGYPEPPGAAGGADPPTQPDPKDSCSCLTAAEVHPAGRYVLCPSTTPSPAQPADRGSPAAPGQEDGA

Row | SMILES | IC50 [1] [nM] | IC50 [2] [nM] | further results
1 | Nc1nc(Nc2ccc(N3CCN(C4CC5CCC4C5)CC3)cc2)nn1-c1nc(C(F)(F)F)nc2ccccc12 (centres unmarked) [Compound 136, N^3-(4-(4-(bicyclo[2.2.1]heptan-2-yl)piperazin-1-yl)phenyl)-1-(2-(trifluoromethyl)quinazolin-4-yl)-1H-1,2,4-triazole-3,5-diamine] | 1000 to 10000 | – | –
2 | COc1cc2c(-n3nc(Nc4ccc(N5CCN(C6CC7CCC6C7)CC5)cc4)nc3N)nc(Cl)nc2cc1O (centres unmarked) [Compound 102, 4-(5-amino-3-(4-(4-(bicyclo[2.2.1]heptan-2-yl)piperazin-1-yl)phenylamino)-1H-1,2,4-triazol-1-yl)-2-chloro-6-methoxyquinazolin-7-ol] | < 1000 | – | –
3 | COc1cc2ncnc(-n3nc(Nc4ccc(N5CCC(N6CCCCC6)CC5)c(F)c4)nc3N)c2cc1OC [Compound 209, 1-(6,7-dimethoxyquinazolin-4-yl)-N^3-(3-fluoro-4-(4-piperidin-1-ylpiperidin-1-yl)phenyl)-1H-1,2,4-triazole-3,5-diamine] | – | – | IC50 [3]: < 1000 nM
4 | CNc1cccc(-n2nc(Nc3ccc(OCCN4CCCCC4)cc3)nc2N)n1 [Compound 35, 1-(6-(methylamino)pyridin-2-yl)-N^3-(4-(2-(piperidin-1-yl)ethoxy)phenyl)-1H-1,2,4-triazole-3,5-diamine] | – | 1000 to 10000 | –
5 | Cn1c(-n2nc(Nc3ccc(OCCN4CCCC4)cc3)nc2N)nc2ccccc21 [Compound 14, 1-(1-methyl-1H-benzo[d]imidazol-2-yl)-N^3-(4-(2-(pyrrolidin-1-yl)ethoxy)phenyl)-1H-1,2,4-triazole-3,5-diamine] | – | > 20000 | –
6 | Nc1nc(Nc2ccc(OCCN3CCCC3)cc2)nn1-c1nccc2ccccc12 [Compound 50, 1-(isoquinolin-1-yl)-N^3-(4-(2-(pyrrolidin-1-yl)ethoxy)phenyl)-1H-1,2,4-triazole-3,5-diamine] | – | < 1000 | –
7 | Nc1nc(Nc2ccc(N3CCN(C4CCCCC4)CC3)cc2)nn1-c1nccc2ccccc12 [Compound 81, N^3-(4-(4-cyclohexylpiperazin-1-yl)phenyl)-1-(isoquinolin-1-yl)-1H-1,2,4-triazole-3,5-diamine] | < 1000 | – | –
8 | COc1cc2ncnc(-n3nc(Nc4ccc(OCCN5CCCC5)cc4)nc3N)c2cc1OC [Compound 45, 1-(6,7-dimethoxyquinazolin-4-yl)-N^3-(4-(2-(pyrrolidin-1-yl)ethoxy)phenyl)-1H-1,2,4-triazole-3,5-diamine] | – | < 1000 | –
9 | Cn1c(-n2nc(Nc3ccc(OCCN4CCCC4)c(Cl)c3)nc2N)nc2ccccc21 [Compound 40, N^3-(3-chloro-4-(2-(pyrrolidin-1-yl)ethoxy)phenyl)-1-(1-methyl-1H-benzo[d]imidazol-2-yl)-1H-1,2,4-triazole-3,5-diamine] | – | < 1000 | –
10 | COc1ccc(Nc2nc(N)n(-c3ccccn3)n2)cc1 [Compound 142, N^3-(4-methoxyphenyl)-1-(pyridin-2-yl)-1H-1,2,4-triazole-3,5-diamine] | – | – | IC50 [3]: > 20000 nM
11 | Cc1csc2c(-n3nc(Nc4ccc(C5CCN(C6CC7CCC6C7)CC5)cc4)nc3N)ncnc12 (centres unmarked) [Compound 261, 1-(7-methylthieno[3,2-d]pyrimidin-4-yl)-N^3-(4-(1-(bicyclo[2.2.1]heptan-2-yl)piperidin-4-yl)phenyl)-1H-1,2,4-triazole-3,5-diamine] | – | – | IC50 [3]: < 1000 nM
12 | COc1cc2ncnc(-n3nc(Nc4ccc(N5CCN(C6C7CCCC6CCC7)CC5)cc4)nc3N)c2cc1OC (centres unmarked) [Compound 118, N^3-(4-(4-(bicyclo[3.3.1]nonan-9-yl)piperazin-1-yl)phenyl)-1-(6,7-dimethoxyquinazolin-4-yl)-1H-1,2,4-triazole-3,5-diamine] | 1000 to 10000 | – | –
13 | Nc1nc(Nc2cc(F)c(F)c(F)c2)nn1-c1ccccn1 [Compound 149, 1-(pyridin-2-yl)-N^3-(3,4,5-trifluorophenyl)-1H-1,2,4-triazole-3,5-diamine] | – | – | IC50 [3]: > 20000 nM
14 | CN1CCC(c2ccc(Nc3nc(N)n(-c4nc5ccccc5c5ccccc45)n3)cc2)CC1 [Compound 213, 1-(phenanthridin-6-yl)-N^3-(4-(1-methylpiperidin-4-yl)phenyl)-1H-1,2,4-triazole-3,5-diamine] | – | – | IC50 [3]: < 1000 nM
15 | Nc1nc(Nc2ccc(OCCN3CCCC3)c(Cl)c2)nn1-c1nc2ccccc2s1 [Compound 39, 1-(benzo[d]thiazol-2-yl)-N^3-(3-chloro-4-(2-(pyrrolidin-1-yl)ethoxy)phenyl)-1H-1,2,4-triazole-3,5-diamine] | – | < 1000 | –
16 | COc1cc2ncnc(-n3nc(Nc4ccc(N5Cc6ccccc6C5)c(F)c4)nc3N)c2cc1OC [Compound 216, 1-(6,7-dimethoxyquinazolin-4-yl)-N^3-(3-fluoro-4-(isoindolin-2-yl)phenyl)-1H-1,2,4-triazole-3,5-diamine] | – | – | IC50 [3]: > 20000 nM

Second part, led by results:

Row | IC50 [1] [nM] | IC50 [2] [nM] | SMILES | further results
17 | < 1000 | – | Cc1csc2c(-n3nc(Nc4ccc(N5CCN([C@H]6C[C@@H]7CC[C@H]6C7)[C@H](C)C5)c(F)c4)nc3N)ncnc12 [Compound 250, 1-(7-methylthieno[3,2-d]pyrimidin-4-yl)-N^3-(3-fluoro-4-(3-(R)-methyl-4-((1S,2S,4R)-bicyclo[2.2.1]heptan-2-yl)piperazin-1-yl)phenyl)-1H-1,2,4-triazole-3,5-diamine] | –
18 | < 1000 | – | Nc1nc(Nc2ccc(N3CCN([C@H]4C[C@@H]5CC[C@H]4C5)CC3)cc2)nn1-c1ncnc2sccc12 [Compound 190, 1-(thieno[2,3-d]pyrimidin-4-yl)-N^3-(4-(4-((1S,2S,4R)-bicyclo[2.2.1]heptan-2-yl)-piperazin-1-yl)phenyl)-1H-1,2,4-triazole-3,5-diamine] | –
19 | – | < 1000 | Nc1nc(Nc2ccc(OCCN3CCCC3)cc2)nn1-c1nc(Cl)nc2cc(Cl)sc12 [Compound 175, 1-(2,6-dichlorothieno[3,2-d]pyrimidin-4-yl)-N^3-(4-(2-pyrrolidin-1-ylethoxy)phenyl)-1H-1,2,4-triazole-3,5-diamine] | –
20 | 1000 to 10000 | – | Cc1csc2c(-n3nc(Nc4ccc(N5CCN([C@H]6CC7CCC6C7)CC5)cc4)nc3N)nc(-c3cccc(NS(C)(=O)=O)c3)nc12 (stereo partly drawn) [Compound 238, 1-(7-methyl-2-(3-(methylsulfonyl)aminophenyl)thieno[3,2-d]pyrimidin-4-yl)-N^3-(4-(4-((2S)-bicyclo[2.2.1]heptan-2-yl)piperazin-1-yl)phenyl)-1H-1,2,4-triazole-3,5-diamine] | –
21 | < 1000 | – | Cc1csc2c(-n3nc(Nc4ccc(N5CCN([C@H]6C[C@@H]7CC[C@H]6C7)CC5)c(F)c4)nc3N)ncnc12 [Compound 201, 1-(7-methylthieno[3,2-d]pyrimidin-4-yl)-N^3-(3-fluoro-4-(4-((1S,2S,4R)-bicyclo[2.2.1]heptan-2-yl)-piperazin-1-yl)phenyl)-1H-1,2,4-triazole-3,5-diamine] | –
22 | < 1000 | – | Cc1csc2c(-n3nc(Nc4ccc(N5CCN([C@H]6C[C@@H]7CC[C@H]6C7)[C@@H](C)C5)c(F)c4)nc3N)ncnc12 [Compound 251, 1-(7-methylthieno[3,2-d]pyrimidin-4-yl)-N^3-(3-fluoro-4-(3-(S)-methyl-4-((1S,2S,4R)-bicyclo[2.2.1]heptan-2-yl)piperazin-1-yl)phenyl)-1H-1,2,4-triazole-3,5-diamine] | –
23 | 1000 to 10000 | – | Cc1csc2c(-n3nc(Nc4ccc(N5CCN([C@H]6CC7CCC6C7)CC5)cc4)nc3N)nc(C=CCN3CCCC3)nc12 (stereo partly drawn) [Compound 239, 1-(7-methyl-2-(3-(pyrrolidin-1-yl)prop-1-enyl)thieno[3,2-d]pyrimidin-4-yl)-N^3-(4-(4-((2S)-bicyclo[2.2.1]heptan-2-yl)piperazin-1-yl)phenyl)-1H-1,2,4-triazole-3,5-diamine] | –
